Experimental data from ChEMBL document CHEMBL4739717, “Methods of treating cartilage disorders through inhibition of clk and dyrk” (2020).

Key:
[1] = Effect on Wnt signaling pathway in human SW480 cells harbouring TCF/LEF luciferase reporter gene and SP5-Luc reporter gene incubated for 36 to 48 hrs by luminescence assay; format: cell-based
[2] = Induction of chondrogenesis in human MSC assessed as maximum activity at 300 nM incubated for 6 days by rhodamine B and Nile red staining based imaging analysis relative to control; format: functional; settings: BMMSC, 144 h, time 6 day
[3] = molecular target: Dual specificity tyrosine-phosphorylation-regulated kinase 1A (Homo sapiens, UniProt Q13627); experiment: Inhibition of recombinant DYRK1A (unknown origin) using Ser/Thr 18 peptide as substrate incubated for 1 hr in presence of ATP by FRET assay
[4] = Induction of chondrogenesis in human MSC assessed as incubated for 6 days by rhodamine B and Nile red staining based imaging analysis; format: functional; settings: bmmsc

SMILES	EC50 [1]	Emax at 0.3 µM [2]	EC50 [3]	EC50 [4]
CN1CCN(c2nccc3[nH]c(-c4n[nH]c5ccc(-c6cncc(CN7CCCCC7)c6)nc45)cc23)CC1	4160 nM	70.8%	15 nM	10 nM
CN(C)Cc1cncc(-c2cc3c(-c4nc5c(-c6cccc(F)c6)cccc5[nH]4)n[nH]c3cn2)c1	82.2 nM	311%	15 nM	100 nM
CC1CCN(Cc2cncc(-c3ccc4[nH]nc(C(=O)Nc5cccnc5)c4c3)c2)CC1	7 nM	94.4%	–	30 nM
O=C(Nc1cncc(-c2cnc3[nH]nc(-c4nc5c(-c6cccc(F)c6)cncc5[nH]4)c3c2)c1)C1CC1	11 nM	148%	75 nM	10 nM
CC(C)(C)CC(=O)Nc1cncc(-c2ccc3[nH]nc(-c4nc5ccncc5[nH]4)c3c2)c1	21 nM	152%	3 nM	100 nM
Nc1cncc(-c2ccc3[nH]nc(-c4nc5c(-c6ccccc6F)nccc5[nH]4)c3n2)c1	> 10000 nM	108%	8 nM	10 nM
O=C(Nc1cncc(-c2cnc3[nH]nc(-c4nc5c(-c6cccnc6)cncc5[nH]4)c3c2)c1)C1CCC1	35.4 nM	130%	11 nM	300 nM
COc1cccc(-c2cncc3[nH]c(-c4n[nH]c5ccc(-c6cccnc6)nc45)nc23)c1	> 10000 nM	59.2%	30 nM	30 nM
COc1ccc(NC(=O)c2n[nH]c3ccc(-c4cncc(CN5CCCCC5)c4)cc23)cn1	15 nM	138%	1 nM	300 nM
c1cncc(-c2ccc3[nH]nc(-c4nc5c(-c6cccnc6)cncc5[nH]4)c3c2)c1	35 nM	159%	76 nM	30 nM
O=C(Nc1cncc(-c2ccc3[nH]nc(-c4cc5c(-c6ccncc6)nccc5[nH]4)c3c2)c1)C1CCCC1	> 10000 nM	114%	11 nM	30 nM
CN1CCN(c2cccc3[nH]c(-c4n[nH]c5ccc(-c6cncc(CN7CCCCC7)c6)cc45)cc23)CC1	4970 nM	198%	35 nM	100 nM
Cc1ccncc1-c1ccc2[nH]nc(-c3nc4c(-c5ccsc5)nccc4[nH]3)c2c1	18.9 nM	156%	52 nM	10 nM
CN(C)CCNc1cc(F)cc(-c2cncc3[nH]c(-c4n[nH]c5ncc(-c6cccnc6)cc45)nc23)c1	21 nM	129%	5 nM	300 nM
CN1CCN(c2ccc(NC(=O)c3n[nH]c4ccc(-c5cncc(CN6CCC(F)(F)C6)c5)cc34)cn2)CC1	4 nM	80.9%	–	30 nM
CN(C)Cc1cncc(-c2ccc3[nH]nc(-c4cc5c(N6CCCCC6)cccc5[nH]4)c3c2)c1	575 nM	205%	71 nM	10 nM
CC(C)(C)C(=O)Nc1cncc(-c2cnc3[nH]nc(-c4nc5c(-c6ccoc6)cncc5[nH]4)c3c2)c1	70 nM	144%	12 nM	30 nM
Nc1cncc(-c2cnc3[nH]nc(-c4nc5c(-c6ccccc6F)ccnc5[nH]4)c3c2)c1	12.3 nM	59.9%	50 nM	300 nM
Nc1cncc(-c2cnc3[nH]nc(-c4cc5c(-c6ccccc6F)nccc5[nH]4)c3c2)c1	197 nM	86%	31 nM	30 nM
CCC(=O)Nc1cncc(-c2ccc3[nH]nc(-c4nc5c(N6CCCCC6)cncc5[nH]4)c3n2)c1	> 10000 nM	69.8%	16 nM	900 nM
CC(C)Nc1cncc(-c2ccc3[nH]nc(-c4cc5c(-c6cccnc6)ccnc5[nH]4)c3c2)c1	> 10000 nM	45.5%	20 nM	–
O=C(Nc1cncc(-c2cnc3[nH]nc(-c4cc5c(N6CCCCC6)nccc5[nH]4)c3c2)c1)C1CC1	3850 nM	42.5%	31 nM	–
CCC(=O)Nc1cncc(-c2cnc3[nH]nc(-c4nc5c(-c6ccc(F)cc6)cncc5[nH]4)c3c2)c1	11 nM	143%	11 nM	300 nM
CCCCC(=O)Nc1cncc(-c2cnc3[nH]nc(-c4cc5cnccc5[nH]4)c3c2)c1	1470 nM	30.8%	3 nM	–
CCC(=O)Nc1cncc(-c2cc3c(-c4cc5c(N6CCN(C)CC6)nccc5[nH]4)n[nH]c3cn2)c1	> 10000 nM	70%	3 nM	30 nM
FC1(F)CCN(Cc2cncc(-c3ccc4[nH]nc(-c5cc6c(-c7cccnc7)ccnc6[nH]5)c4c3)c2)C1	523 nM	20.3%	10 nM	–
Fc1ccc(-c2cncc3[nH]c(-c4n[nH]c5cnc(-c6cncc(CN7CCC(F)(F)C7)c6)cc45)cc23)cc1	3260 nM	78.4%	30 nM	100 nM

SMILES	EC50 [1]	Emax at 0.3 µM [2]	EC50 [3]	EC50 [4]
CN(C)Cc1cncc(-c2ccc3[nH]nc(-c4cc5c(-c6ccncc6)cncc5[nH]4)c3c2)c1	1060 nM	17.8%	27 nM	–
CN(C)Cc1cncc(-c2ccc3[nH]nc(-c4cc5c(-c6cccc(F)c6)nccc5[nH]4)c3c2)c1	2940 nM	42%	93 nM	–
CC(C)CC(=O)Nc1cncc(-c2ccc3[nH]nc(-c4cc5c(-c6ccccc6F)nccc5[nH]4)c3n2)c1	605 nM	36.3%	23 nM	–
O=C(Nc1cncc(-c2cc3c(-c4cc5c(N6CCCCC6)nccc5[nH]4)n[nH]c3cn2)c1)C1CCC1	4070 nM	42.4%	23 nM	–
CN1CCN(c2ccnc3[nH]c(-c4n[nH]c5ncc(-c6cn[nH]c6)cc45)cc23)CC1	> 10000 nM	20.1%	35 nM	–
COc1ccc(NC(=O)c2n[nH]c3ccc(-c4cncc(CN5CCC(F)(F)C5)c4)cc23)cn1	5 nM	72.2%	–	100 nM
O=C(Nc1cncc(-c2cnc3[nH]nc(-c4cc5c(-c6cccnc6)cccc5[nH]4)c3c2)c1)C1CCC1	202 nM	41.3%	25 nM	–
CC(C)C(=O)Nc1cncc(-c2cc3c(-c4cc5c(-c6cccc(F)c6)cncc5[nH]4)n[nH]c3cn2)c1	1730 nM	42.2%	65 nM	–
c1cncc(-c2ccnc3[nH]c(-c4n[nH]c5cnc(-c6cncc(CN7CCCC7)c6)cc45)cc23)c1	> 10000 nM	16.7%	72 nM	–
CCCC(=O)Nc1cncc(-c2cnc3[nH]nc(-c4nc5c(-c6ccccc6F)cncc5[nH]4)c3c2)c1	8 nM	82.8%	70 nM	–
CN1CCN(c2nccc3[nH]c(-c4n[nH]c5ccc(-c6cncc(CN7CCCC7)c6)cc45)cc23)CC1	9380 nM	31%	48 nM	–
Cc1ccncc1-c1cnc2[nH]nc(-c3cc4c(-c5cccnc5)cncc4[nH]3)c2c1	2250 nM	17.4%	17 nM	–
CC(C)(C)CC(=O)Nc1cncc(-c2cnc3[nH]nc(-c4cc5cnccc5[nH]4)c3c2)c1	605 nM	7.07%	2 nM	–
CN1CCN(c2nccc3[nH]c(-c4n[nH]c5ccc(-c6cncc(NC(=O)CC7CCNCC7)c6)cc45)cc23)CC1	> 10000 nM	42.8%	25 nM	–
CN1CCN(c2cncc3[nH]c(-c4n[nH]c5ccc(-c6cccnc6)cc45)nc23)CC1	52 nM	80.6%	2 nM	–
CN1CCN(c2ccnc3[nH]c(-c4n[nH]c5ccc(-c6cncc(NC(=O)CC(C)(C)C)c6)nc45)cc23)CC1	3870 nM	30.3%	10 nM	–
c1ncc(-c2ccc3[nH]nc(-c4cc5c(N6CCCCC6)cncc5[nH]4)c3c2)cc1CN1CCCC1	1840 nM	24.7%	24 nM	–
O=C(Nc1cncc(-c2ccc3[nH]nc(-c4nc5ccncc5[nH]4)c3c2)c1)C1CC1	8 nM	93.8%	42 nM	–
CC(C)(C)C(=O)Nc1cncc(-c2cc3c(-c4nc5c(-c6ccc(F)s6)nccc5[nH]4)n[nH]c3cn2)c1	35.3 nM	40.9%	30 nM	–
FC1(F)CCN(Cc2cncc(-c3cnc4[nH]nc(-c5cc6c(-c7ccncc7)cncc6[nH]5)c4c3)c2)C1	1510 nM	36.5%	13 nM	–
FC1(F)CCN(Cc2cncc(-c3ccc4[nH]nc(-c5cc6c(-c7cccnc7)cncc6[nH]5)c4n3)c2)C1	3850 nM	23.3%	30 nM	–
c1cncc(-c2ccnc3[nH]c(-c4n[nH]c5ncc(-c6cncc(CN7CCCCC7)c6)cc45)cc23)c1	> 10000 nM	43.9%	15 nM	–
Cc1cncc(NC(=O)c2n[nH]c3ccc(-c4cncc(CN5CCCCC5)c4)cc23)c1	59 nM	68.3%	–	300 nM
Nc1cncc(-c2ccc3[nH]nc(-c4cc5c(-c6ccccc6F)ccnc5[nH]4)c3c2)c1	131 nM	23.5%	34 nM	–
COc1cncc(-c2ccc3[nH]nc(-c4cc5c(-c6ccoc6)nccc5[nH]4)c3c2)c1	643 nM	35.5%	35 nM	–
c1cncc(-c2ccnc3[nH]c(-c4n[nH]c5cnc(-c6cncnc6)cc45)cc23)c1	> 10000 nM	49.6%	100 nM	–
